Three compounds from patent US9695155B2, “Herbicidal substituted pyrimidinyloxy benzene compounds” (E. I. DU PONT DE NEMOURS AND COMPANY, priority 2013, dated 2017) can be followed below.

The subject of one experiment is barnyardgrass. The experiment in a line: Test B flooded paddy test. Type of experiment: in vivo, Echinochloa crus-galli. The following applies: Flood, 250 g ai/ha; 0 to 100 scale where 0 is no effect and 100 is complete control. An outline of the steps:
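Flooded to 3 cm at the 2-leaf stage, pots received compound through the paddy water and were kept at that depth under greenhouse conditions. After 13–15 days, effect was rated by eye relative to controls, 0 = none and 100 = complete control.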

Another experiment relates to wheat. The experiment in a line: Test A postemergence. Type of experiment: in vivo, Triticum aestivum. The essentials:
(§1)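 Greenhouse pot test, loam/sand soil. Formulation: non-phytotoxic solvent mix plus surfactant. Pre: directed spray onto soil after sowing. Post: plants at 1–2 leaf, 2–10 cm. Rated visually vs untreated controls at ~10 d, 0 (no effect) to 100 (complete control).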

The next experiment concerns Italian ryegrass. The experiment in a line: Test C postemergence. The experiment is classed as in vivo, Lolium multiflorum. To be noted: for Ryegrass, Italian plant response rating: 31 g ai/ha; for Ryegrass, Italian plant response rating / Plant response rating, Ryegrass, Italian: scale 0 to 100 (0 no effect, 100 complete control). From the text:
(§2) Seeds of plant species selected from blackgrass (Alopecurus myosuroides), Italian ryegrass (Lolium multiflorum), wheat, winter (winter wheat, Triticum aestivum), galium (catchweed bedstraw, Galium aparine), corn (Zea mays), large (Lg) crabgrass (Digitaria sanguinalis), giant foxtail (Setaria faberii), johnsongrass (Sorghum halepense), lambsquarters (Chenopodium album), morningglory (Ipomoea coccinea), yellow nutsedge (Cyperus esculentus), pigweed (Amaranthus retroflexus), ragweed (common ragweed, Ambrosia elatior), soybean (Glycine max), barnyardgrass (Echinochloa crus-galli), oilseed rape (Brassica napus), waterhemp (common waterhemp, Amaranthus rudis), kochia (Kochia scoparia), wild oat (Avena fatua), surinam grass (Brachiaria decumbens), foxtail, green (green foxtail, Setaria viridis), goosegrass (Eleusine indica), bromegrass, downy (downy bromegrass, Bromus tectorum), nightshade (eastern black nightshade, Solanum ptycanthum), cocklebur (common cocklebur, Xanthium strumarium), cupgrass, woolly (woolly cupgrass, Eriochloa villosa), bermudagrass (Cynodon dactylon), sunflower, (common oilseed sunflower, Helianthus annuus), Russian thistle (Salsola kali), and velvetleaf (Abutilon theophrasti) were planted into a blend of loam soil and sand and treated preemergence with test chemicals formulated in a non-phytotoxic solvent mixture which included a surfactant.
(§3) At the same time, plants selected from these crop and weed species and also barley, winter (winter barley, Hordeum vulgare), windgrass (Apera spica-venti), chickweed (common chickweed, Stellaria media), deadnettle (henbit deadnettle, Lamium amplexicaule), and canarygrass (littleseed canarygrass, Phalaris minor) were planted in pots containing Redi-Earth® planting medium (Scotts Company, 14111 Scottslawn Road, Marysville, Ohio 43041) comprising spaghnum peat moss, vermiculite, wetting agent and starter nutrients and treated with postemergence applications of test chemicals formulated in the same manner. Plants ranged in height from 2 to 18 cm (1- to 4-leaf stage) for postemergence treatments. Treated plants and controls were maintained in a greenhouse for 13 to 15 days, after which time all species were compared to controls and visually evaluated. Plant response ratings, summarized in Table C, are based on a scale of 0 to 100 where 0 is no effect and 100 is complete control. A dash (-) response means no test result.

For experiment [1], the system named is pigweed. The experiment in a line: Test A postemergence. Type of experiment: in vivo, Amaranthus retroflexus. The essentials:
as §1

The test system of another experiment is kochia. The experiment in a line: Test C postemergence. The experiment is classed as in vivo, Kochia scoparia. The following applies: for Kochia plant response rating: 31 g ai/ha; for Kochia plant response rating / Plant response rating, Kochia: scale 0 to 100 (0 no effect, 100 complete control).
From the text: as §2, §3

The next experiment relates to morningglory. The experiment in a line: Test C postemergence. Type of experiment: in vivo, Ipomoea coccinea. The following applies: for Morningglory plant response rating: 31 g ai/ha; for Morningglory plant response rating / Plant response rating, Morningglory: scale 0 to 100 (0 no effect, 100 complete control).
From the text: as §2, §3

For a further experiment, the system named is giant foxtail. The experiment in a line: Test A preemergence. Type of experiment: in vivo, Setaria faberii. An outline of the steps:
as §1

In experiment [2] the test system is pigweed. The experiment in a line: Test C postemergence. Type of experiment: in vivo, Amaranthus retroflexus. To be noted: for Pigweed plant response rating: 31 g ai/ha; for Pigweed plant response rating / Plant response rating, Pigweed: scale 0 to 100 (0 no effect, 100 complete control).
From the text: as §2, §3

[3] abbreviates: 125 g ai/ha, 0 to 100 scale, 0 no effect, 100 complete control.
The mark [4] stands for this setting: 500 g ai/ha, 0 to 100 scale where 0 is no effect and 100 is complete control.
Where [5] appears, read: postemergence, visual rating, 13 to 15 days.
Where [6] appears, read: 125 g ai/ha, postemergence, visual rating.
[7] abbreviates: Postemergence, 62 g ai/ha, 13 to 15 days.
[8] abbreviates: 31 g ai/ha, 0 to 100 scale, 0 no effect, 100 complete control.
Where [9] appears, read: 16 g ai/ha, postemergence, 0 is no effect, 100 is complete control.
Setting [10] is: 1000 g ai/ha, 0 to 100 scale, 0 no effect, 100 complete control.

As for `N#Cc1cccc(Oc2ncc(Cl)cn2)c1-n1cc(-n2ccc(C(F)(F)F)n2)cn1` [Compound 284], in the experiment on barnyardgrass, the “Plant response rating, Barnyardgrass” value is reported as 0. Besides, the “Plant response rating, Wheat” value in the experiment with wheat (setting [3]) and in the experiment on wheat (setting [4]) was 20 throughout. In addition, in the experiment with Italian ryegrass (setting [5]), the “Ryegrass, Italian plant response rating” value was found to be 5. Moreover, the “Plant response rating, Ryegrass, Italian” value in the experiment with Italian ryegrass (setting [6]) and in the experiment on Italian ryegrass (setting [7]) was 5 in each case. For the same compound, the “Plant response rating (0 to 100), Ryegrass, Italian” value with Italian ryegrass (250 g ai/ha, postemergence) is 5. Besides, the “Plant response rating, Pigweed” value with pigweed [1] (setting [3]) stood at 100; in the experiment with pigweed [1] (setting [4]) it was 100; in the experiment on pigweed [2] (setting [6]), 100; in the experiment on pigweed [2] (setting [7]), 98. In addition, the “Kochia plant response rating” value in the experiment on kochia (setting [5]) was 100. In addition, the “Plant response rating, Kochia” value in the experiment with kochia (setting [6]) and with kochia (setting [7]) was 100 each time. For the same compound, the “Plant response rating (0 to 100), Kochia” value with kochia (250 g ai/ha, postemergence) is 100. Moreover, the “Morningglory plant response rating” value in the experiment on morningglory (setting [5]) is recorded as 70. In addition, the entries for the “Plant response rating, Morningglory” value in the experiment on morningglory (setting [6]) and in the experiment on morningglory (setting [7]) were 85 and 100, respectively. Moreover, the “Plant response rating (0 to 100), Morningglory” value in the experiment on morningglory (250 g ai/ha, postemergence) amounted to 100. Also, in the experiment with giant foxtail (125 g ai/ha), the “Foxtail, Giant plant response rating (0 to 100 scale)” value was 90. The “Foxtail, Giant plant response rating” value in the experiment on giant foxtail (setting [4]) was determined as 90. The “Pigweed plant response rating” value in the experiment on pigweed [2] (setting [5]) is recorded as 98. In addition, the “Plant response rating (0 to 100), Pigweed” value in the experiment on pigweed [2] (250 g ai/ha, postemergence) turned out to be 100.
As for `FCc1cccc(Oc2ncc(Br)cn2)c1-n1cc(C(F)(F)F)cn1` [Compound 120], the “Plant response rating, Barnyardgrass” value with barnyardgrass was found to be 0. Further, the “Plant response rating, Wheat” value with wheat (setting [8]) came to 0. For the same compound, the “Plant response rating (0 to 100), Ryegrass, Italian” value in the experiment with Italian ryegrass (setting [9]) was 0. Besides, the “Plant response rating, Ryegrass, Italian” value was determined as 5 with Italian ryegrass (setting [6]) and 0 in the experiment with Italian ryegrass (Postemergence, 62 g ai/ha). The “Plant response rating, Pigweed” value was 60 in the experiment on pigweed [1] (setting [8]); 95 with pigweed [2] (setting [6]); 85 in the experiment with pigweed [2] (Postemergence, 62 g ai/ha). Moreover, in the experiment with kochia (setting [9]), the “Plant response rating (0 to 100), Kochia” value is 75. Besides, the “Plant response rating, Kochia” value with kochia (setting [6]) was determined as 100; in the experiment with kochia (Postemergence, 62 g ai/ha) it was 95. In the experiment with morningglory (setting [9]), the “Plant response rating (0 to 100), Morningglory” value is reported as 20. For the same compound, the “Plant response rating, Morningglory” value in the experiment with morningglory (setting [6]) is recorded as 80; with morningglory (Postemergence, 62 g ai/ha), 35. In addition, in the experiment on giant foxtail (31 g ai/ha), the “Foxtail, Giant plant response rating (0 to 100 scale)” value is reported as 50. In addition, the “Plant response rating, Foxtail, Giant” value in the experiment with giant foxtail (125 g ai/ha, 0 to 100 scale where 0 is no effect and 100 is complete control) worked out at 100. For the same compound, the “Plant response rating (0 to 100), Pigweed” value in the experiment on pigweed [2] (setting [9]) was found to be 40.
As to `Fc1cccc(Oc2ncc(Cl)cn2)c1-n1cc(C2CC2)nn1` [Compound 155], the “Plant response rating, Barnyardgrass” value in the experiment on barnyardgrass was 40. The “Plant response rating, Wheat” value with wheat (setting [10]) was 90. Besides, the “Plant response rating (0 to 100), Ryegrass, Italian” value in the experiment with Italian ryegrass (setting [9]) worked out at 0. In addition, the “Ryegrass, Italian plant response rating” value with Italian ryegrass (setting [5]) was determined as 0. Moreover, the “Plant response rating, Ryegrass, Italian” value in the experiment on Italian ryegrass (setting [6]) is 10; in the experiment with Italian ryegrass (Postemergence, 62 g ai/ha) it was 10. The “Plant response rating, Pigweed” value in the experiment on pigweed [1] (setting [10]) is recorded as 100; in the experiment with pigweed [2] (setting [6]) it was 98; with pigweed [2] (Postemergence, 62 g ai/ha), 98. Also, the “Plant response rating (0 to 100), Kochia” value in the experiment with kochia (setting [9]) came to 80. Also, the “Kochia plant response rating” value in the experiment on kochia (setting [5]) was found to be 98. Further, the “Plant response rating, Kochia” value in the experiment with kochia (setting [6]) came to 100; in the experiment on kochia (Postemergence, 62 g ai/ha), 98. In addition, in the experiment with morningglory (setting [9]), the “Plant response rating (0 to 100), Morningglory” value amounted to 70. In addition, the “Morningglory plant response rating” value in the experiment on morningglory (setting [5]) amounted to 80. For the same compound, the “Plant response rating, Morningglory” value was 85 in the experiment with morningglory (setting [6]) and 80 in the experiment on morningglory (Postemergence, 62 g ai/ha). In addition, in the experiment with giant foxtail (1000 g ai/ha, 0 to 100 scale, 0 no effect, 100 complete control, approx. 10 days), the “Foxtail, Giant plant response rating” value was found to be 100. Further, the “Plant response rating (0 to 100), Pigweed” value in the experiment on pigweed [2] (setting [9]) is listed as 80. In addition, the “Pigweed plant response rating” value in the experiment on pigweed [2] (setting [5]) amounted to 75.
